# Reference: patent EP4356909A1, “1-(SULFONYL)-N-PHENYLPYRROLIDINE-2-CARBOXAMIDES DERIVATIVES AND USE THEREOF” (Selabtec Sciences, SLU, priority 2022, dated 2024)
# Experiments:
# [1] = tested on: NFATc activation in HEK 293T cells; test: NFATc activation, 3xNFAT-luc dual-luciferase reporter assay; assay type: cell-based, human; conditions: HEK 293T cells stimulated with ionomycin, PMA and CaCl2; compounds for 2 hours; at least at 100, 50 and 20 µM (Figure 1)
# Description: To determine the effect of compounds of formula (I) on NFATc activation, HEK 293T cells were transfected with 3xNFAT-luc reporter gene and Renilla-luc plasmid as control of gene transfection. After 24 hours, to activate the cellular CN -NFATc signaling pathway, cells were stimulated with ionomycin (lo), PMA and CaCl2 for 4 h to raise intracellular concentration of calcium. As positive control of inhibition of CN activity, cells were treated with 1 µM of CsA 30 min prior to Io/PMA/CaCl2 stimulation. Then, cells were treated with compounds of formula (I) at several concentrations for 2 hours and light units analyzed following manufacture's protocol of the dual-luciferase reporter assay system (Figure 1, Functional effect of pair related structure compounds on NFATc activation).
# [2] = tested on: RD; test: Proliferation assay, Methyl violet staining; assay type: cell-based; conditions: inhibition values; rhabdomyosarcoma cell line; 5 days of incubation; mean of 6 wells
# Description: (§1) Compound INK-150.46 (or SLB-605) was assayed against several cancer cell lines in proliferation assays.
# (§2) The measurements were taken using an in vitro test to measure cell growth based on Methyl violet staining after 5 days of incubation with the aforementioned drug or control vehicle (DMSO). The procedure was carried out in a 96-well plate. After 1 wash with phosphate-buffered saline (PBS), cells were stained for 20 minutes at room temperature with Methyl violet (0.5 % w/v in water). After 5 washes with PBS, and the addition of acetic acid (10% in water), plates were read in a spectrophotometer at 590 nm. All conditions were tested in 6 independent wells and results expressed as a mean of all replicates.
# [3] = tested on: RH4; test: Proliferation assay, Methyl violet staining; assay type: cell-based; conditions: inhibition values; rhabdomyosarcoma cell line; 5 days of incubation; mean of 6 wells
# Description: as §1, §2
# [4] = tested on: SHSY5Y; test: Proliferation assay, Methyl violet staining; assay type: cell-based; conditions: inhibition values; neuroblastoma cell line; 5 days of incubation; mean of 6 wells
# Description: as §1, §2
# [5] = tested on: SKNBE2; test: Proliferation assay, Methyl violet staining; assay type: cell-based; conditions: inhibition values; neuroblastoma cell line; 5 days of incubation; mean of 6 wells
# Description: as §1, §2
# [6] = tested on: U2OS; test: Proliferation assay, Methyl violet staining; assay type: cell-based; conditions: osteosarcoma (OS) cell line; 5 days of incubation (Figure 7)
# Description: as §1, §2
smiles,measurement,setting,value
"Cc1c(Cl)cc(F)cc1S(=O)(=O)N1CCC[C@H]1C(=O)N(Cn1nnc2ccccc21)c1ccccc1 [INK-150.46, (S)-N-((1H-Benzo[d][1,2,3]triazol-1-yl)methyl)-1-((3-chloro-5-fluoro-2-methylphenyl)sulfonyl)-N-phenylpyrrolidine-2-carboxamide]",NFATc activation,[1],strongly inhibits NFATc activation
same,Effect over RD (%),[2],75%
same,Effect over RH4 (%),[3],78.1%
same,Effect over SHSY5Y (%),[4],48.8%
same,Effect over SKNBE2 (%),[5],59.5%
same,inhibitory effect over U2OS (proliferation),[6],inhibitory effect
